Test results taken from article PMC6468648, “The Flavonoid Metabolite 2,4,6-Trihydroxybenzoic Acid Is a CDK Inhibitor and an Anti-Proliferative Agent: A Potential Role in Cancer Prevention” (Cancers, 2019).

Key:
Type in all cases: biochemical
CDK4 = biological target: T1, CDK4 (Homo sapiens, UniProt P11802); test: in vitro kinase assay, […]-ATP ([…] ATP), retinoblastoma (C-term) substrate, SDS-PAGE autoradiography
T1 construct: recombinant CDK4/Cyclin D1 (SignalChem); with Cyclin D1

CDK2 = biological target: T2, CDK2 (Homo sapiens, UniProt P24941); test: in vitro kinase assay, […]-ATP ([…] ATP), H1 histone substrate, SDS-PAGE autoradiography
T2 construct: recombinant CDK2/Cyclin A2 (SignalChem); with Cyclin A2

CDK1 = biological target: T3, CDK1 (Homo sapiens, UniProt P06493); test: as above
T3 construct: recombinant CDK1/Cyclin B1 (SignalChem); with Cyclin B1
T3 sequence (P06493 whole entry): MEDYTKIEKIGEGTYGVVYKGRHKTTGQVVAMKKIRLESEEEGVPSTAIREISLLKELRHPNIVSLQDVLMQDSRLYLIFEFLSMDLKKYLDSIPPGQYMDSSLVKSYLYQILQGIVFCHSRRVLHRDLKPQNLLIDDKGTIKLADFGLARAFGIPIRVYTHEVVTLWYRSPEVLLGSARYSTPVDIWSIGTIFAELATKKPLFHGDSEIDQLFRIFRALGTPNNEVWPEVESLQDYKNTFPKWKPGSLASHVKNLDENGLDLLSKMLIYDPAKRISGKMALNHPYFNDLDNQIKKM
T3 sequence (P14635 whole entry partner): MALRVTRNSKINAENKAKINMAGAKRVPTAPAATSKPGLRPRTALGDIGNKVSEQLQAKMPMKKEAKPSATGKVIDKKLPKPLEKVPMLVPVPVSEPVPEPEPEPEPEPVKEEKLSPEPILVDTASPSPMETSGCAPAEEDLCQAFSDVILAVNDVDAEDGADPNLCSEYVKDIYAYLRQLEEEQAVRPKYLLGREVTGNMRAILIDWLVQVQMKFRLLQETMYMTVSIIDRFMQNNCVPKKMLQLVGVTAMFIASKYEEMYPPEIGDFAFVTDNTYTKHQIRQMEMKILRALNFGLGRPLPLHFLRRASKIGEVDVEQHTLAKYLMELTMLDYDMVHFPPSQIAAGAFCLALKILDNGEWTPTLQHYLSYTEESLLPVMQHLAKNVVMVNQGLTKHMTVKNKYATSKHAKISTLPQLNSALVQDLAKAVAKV

T1 sequence (P11802 2-303): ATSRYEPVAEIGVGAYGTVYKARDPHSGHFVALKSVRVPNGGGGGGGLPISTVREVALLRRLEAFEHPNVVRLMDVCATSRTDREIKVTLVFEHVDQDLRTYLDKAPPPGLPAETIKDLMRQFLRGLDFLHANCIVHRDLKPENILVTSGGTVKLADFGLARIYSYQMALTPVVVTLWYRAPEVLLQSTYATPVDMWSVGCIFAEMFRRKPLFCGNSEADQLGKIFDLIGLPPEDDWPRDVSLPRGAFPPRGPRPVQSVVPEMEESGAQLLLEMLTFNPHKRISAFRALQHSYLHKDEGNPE
T1 sequence (P24385 whole entry partner): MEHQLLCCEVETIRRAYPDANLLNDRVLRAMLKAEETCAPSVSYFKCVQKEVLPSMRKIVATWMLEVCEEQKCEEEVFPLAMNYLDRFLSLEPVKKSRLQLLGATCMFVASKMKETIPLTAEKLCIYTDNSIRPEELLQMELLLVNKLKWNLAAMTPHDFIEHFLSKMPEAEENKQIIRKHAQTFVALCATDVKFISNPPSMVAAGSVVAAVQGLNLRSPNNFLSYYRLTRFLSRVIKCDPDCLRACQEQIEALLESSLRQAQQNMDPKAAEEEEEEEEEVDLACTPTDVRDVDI

- IC50 (CDK4): 403 ± 63 µM
- IC50 (CDK2): 262 ± 29 µM
- IC50 (CDK1): 580 ± 57 µM
Structure (SMILES): O=C(O)c1c(O)cc(O)cc1O [2,4,6-THBA, 2,4,6-trihydroxybenzoic acid]
